US4349667A, “Aminoglycoside antibiotic G-367-2” (Toyo Jozo Kabushiki Kaisha, priority 1979, dated 1982)
Values after ≈ are worked out from the molar mass of the structure shown.

How the values were obtained:
Assay type in all cases: cell-based
[1] = test system: Bacillus subtilis ATCC 6633; experiment: antimicrobial spectrum (MIC) by agar dilution method; details: ATCC6633, read-out: minimum inhibitory concentration, MIC
Excerpt: (§1) The antimicrobial spectrum (minimum inhibitory concentration, MIC) of G-367-2 by agar dilution method is as follows: […]

[2] = test system: Citrobacter freundii GN346; experiment: as above; details: GN346, read-out: minimum inhibitory concentration, MIC
Excerpt: as §1

[3] = test system: Enterobacter aerogenes 0655; experiment: as above; details: Klebsiella aerogenes, read-out: minimum inhibitory concentration, MIC
Excerpt: as §1

[4] = test system: Enterobacter cloacae GN336; experiment: as above; details: read-out: minimum inhibitory concentration, MIC
Excerpt: as §1

[5] = test system: Escherichia coli NIHJ-JC2; experiment: as above; details: NIHJJC2, read-out: minimum inhibitory concentration, MIC
Excerpt: as §1

[6] = test system: Escherichia coli W3630 RGN14; experiment: as above; details: W3630RGN14, read-out: minimum inhibitory concentration, MIC
Excerpt: as §1

Escherichia coli W3630 = experiment: as above; details: read-out: minimum inhibitory concentration, MIC
Excerpt: as §1

[7] = test system: Klebsiella pneumonia ATC 10031; experiment: as above; details: Klebsiella pneumoniae, ATC10031, read-out: minimum inhibitory concentration, MIC
Excerpt: as §1

Proteus morganii 0239 = experiment: as above; details: Morganella morganii, read-out: minimum inhibitory concentration, MIC
Excerpt: as §1

Proteus rettgeri ACR = experiment: as above; details: Providencia rettgeri, read-out: minimum inhibitory concentration, MIC
Excerpt: as §1

[8] = test system: Pseudomonas aeruginosa 1946; experiment: as above; details: read-out: minimum inhibitory concentration, MIC
Excerpt: as §1

[9] = test system: Pseudomonas aeruginosa 2512; experiment: as above; details: read-out: minimum inhibitory concentration, MIC
Excerpt: as §1

[10] = test system: Pseudomonas aeruginosa IAM1095; experiment: as above; details: read-out: minimum inhibitory concentration, MIC
Excerpt: as §1

[11] = test system: Pseudomonas aeruginosa ML4561 RP4; experiment: as above; details: ML4561RP4, read-out: minimum inhibitory concentration, MIC
Excerpt: as §1

[12] = test system: Pseudomonas aeruginosa ML4561 Rms164-1; experiment: as above; details: ML4561RMS1641, read-out: minimum inhibitory concentration, MIC
Excerpt: as §1

[13] = test system: Pseudomonas aeruginosa ML4561 Rms166; experiment: as above; details: ML4561RMS166, read-out: minimum inhibitory concentration, MIC
Excerpt: as §1

[14] = test system: Pseudomonas aeruginosa ML4561; experiment: as above; details: ML4561, read-out: minimum inhibitory concentration, MIC
Excerpt: as §1

[15] = test system: Pseudomonas maltophilia 1850; experiment: as above; details: Stenotrophomonas maltophilia, read-out: minimum inhibitory concentration, MIC
Excerpt: as §1

Pseudomonas putida 1842 = experiment: as above; details: read-out: minimum inhibitory concentration, MIC
Excerpt: as §1

[16] = test system: Salmonella enteritidis Gartner; experiment: as above; details: Salmonella enterica, read-out: minimum inhibitory concentration, MIC
Excerpt: as §1

Serratia marcescens = experiment: as above; details: read-out: minimum inhibitory concentration, MIC
Excerpt: as §1

Shigella sonnei E33 = experiment: as above; details: read-out: minimum inhibitory concentration, MIC
Excerpt: as §1

[17] = test system: Staphylococcus aureus 0119; experiment: as above; details: read-out: minimum inhibitory concentration, MIC
Excerpt: as §1

[18] = test system: Staphylococcus aureus ATCC 6538P; experiment: as above; details: ATCC6538P, read-out: minimum inhibitory concentration, MIC
Excerpt: as §1

[19] = test system: Staphylococcus aureus MS 27; experiment: as above; details: MS27, read-out: minimum inhibitory concentration, MIC
Excerpt: as §1

[20] = test system: Staphylococcus epidermidis sp-al-1; experiment: as above; details: SPAL1, read-out: minimum inhibitory concentration, MIC
Excerpt: as §1

[21] = test system: Streptococcus pyogenes N.Y.5; experiment: as above; details: read-out: minimum inhibitory concentration, MIC
Excerpt: as §1

Gram negative bacteria = experiment: antibacterial effect against Gram negative bacteria
Excerpt: as §1

## CNC1C(O)C(OC2C(N)CC(N)C(OC3OC(CN)=CCC3N)C2O)OCC1(C)O (stereo not shown) [G-367-2]
[1]
  MIC: 1.6 µg/mL (≈ 3.58 µM)
[2]
  MIC: 3.1 µg/mL (≈ 6.93 µM)
[3]
  MIC: 1.6 µg/mL (≈ 3.58 µM)
[4]
  MIC: 1.6 µg/mL (≈ 3.58 µM)
[5]
  MIC: 3.1 µg/mL (≈ 6.93 µM)
[6]
  MIC: 1.6 µg/mL (≈ 3.58 µM)
Escherichia coli W3630
  MIC: 1.6 µg/mL (≈ 3.58 µM)
[7]
  MIC: 1.6 µg/mL (≈ 3.58 µM)
Proteus morganii 0239
  MIC: 6.3 µg/mL (≈ 14.1 µM)
Proteus rettgeri ACR
  MIC: 3.1 µg/mL (≈ 6.93 µM)
[8]
  MIC: > 100 µg/mL
[9]
  MIC: > 100 µg/mL
[10]
  MIC: 25 µg/mL (≈ 55.9 µM)
[11]
  MIC: 6.3 µg/mL (≈ 14.1 µM)
[12]
  MIC: 50 µg/mL (≈ 112 µM)
[13]
  MIC: > 100 µg/mL
[14]
  MIC: 125 µg/mL (≈ 279 µM)
[15]
  MIC: > 100 µg/mL
Pseudomonas putida 1842
  MIC: > 100 µg/mL
[16]
  MIC: 3.1 µg/mL (≈ 6.93 µM)
Serratia marcescens
  MIC: 50 µg/mL (≈ 112 µM)
Shigella sonnei E33
  MIC: 3.1 µg/mL (≈ 6.93 µM)
[17]
  MIC: 12.5 µg/mL (≈ 27.9 µM)
[18]
  MIC: 12.5 µg/mL (≈ 27.9 µM)
[19]
  MIC: 12.5 µg/mL (≈ 27.9 µM)
[20]
  MIC: 1.6 µg/mL (≈ 3.58 µM)
[21]
  MIC: 6.3 µg/mL (≈ 14.1 µM)
Gram negative bacteria
  antibacterial effect: strong antibacterial effect
